Measured values taken from ChEMBL document CHEMBL4842381, “A Novel, Selective c-Abl Inhibitor, Compound 5, Prevents Neurodegeneration in Parkinson's Disease” (J Med Chem, 2021).

Assays:
in vivo [1] = settings: ICR, mouse, plasma, po, 5 mg/kg
in vivo [2] = settings: ICR, mouse, plasma, po, 5 mg/kg; remark: listed apart in the source
in vivo [3] = settings: ICR, mouse, plasma, po, 5 mg/kg; remark: listed apart in the source
in vivo [4] = settings: ICR, mouse, plasma, po, 5 mg/kg; remark: listed apart in the source
in vivo [5] = settings: ICR, mouse, brain/plasma, po, 5 mg/kg

Row | Compound | half-life at 24 h (in vivo [1]) | Tmax at 24 h (in vivo [2]) | Cmax at 24 h (in vivo [3]) | AUC(0-inf) at 24 h (in vivo [4]) | Kp uu at 24 h (in vivo [5])
1 | Cc1c(F)cncc1-c1ccc2nc(NC(=O)[C@@H]3C[C@@H]3F)sc2c1 | 1.8 h | 1.2 h | 4260 ng/mL | 25000 ng·h/mL | 0.21
2 | Cc1cn(-c2cc(NC(=O)c3ccc(C)c(Nc4nccc(-c5cccnc5)n4)c3)cc(C(F)(F)F)c2)cn1 [NILOTINIB] | – | 1 h | – | – | –
